Results published in patent US5354747A, “2-, 3-, 4-, 5-, 6-, 7-, 8-, 9- and/or 10-substituted dibenzoxazepine and dibenzthiazepine compounds, pharmaceutical compositions and methods of use” (G. D. Searle & Co., priority 1993, dated 1994).
Structures can show the parent of a compound that is named as a salt.

Legend:
[1] = system: Charles River male albino mice; test: Writhing Assay (PBQ-induced writhing, analgesic activity); type: in vivo; conditions: Intragastric, 30 mg per kilogram of body weight 25 min before PBQ i.p., writhes equal to or less than one-half the control median; for responders at 30 mg/kg: Mus musculus, po, 25 min, read-out: number of mice out of nine or ten in which a test compound produced analgesia (converted)
Description: The Writhing Assay is one of the most widely-used experimental procedures for measuring the analgesic activity of different narcotic and nonnarcotic analgesic agents, and involves the continuous, chemically-induced pain of visceral origin to an animal, such as a mouse or rat. [Gyires et al., Arch. int. Pharmacodyn, 267, 131-140 (1984); […] al., Fed. Proc., 15, 494 (1956); Koster et al., Fed. Proc., 18, 412 (1959); and Witken et al., J. Pharmacol. exp. Ther., 133, 400-408 (1961).] Chemicals which may be used to induce this pain include phenylbenzoquinone (PBQ) and acetic acid. As a result of the chemical irritation to the animal, a characteristic stretching and writhing of the animal (dorsiflexion of the animal's back, extension of its hindlimbs and the strong contraction of its abdominal musculature) will generally occur. […] Drugs which reduce the number of writhes of the animal appear to restore the normal nociceptive threshold of the animal. Charles River male albino mice, weighing 20 to 30 grams were used in this assay. Twenty-five minutes after intragastric administration to nine or ten mice of 30 mg per kilogram of body weight of a compound of the present invention ("test compound"), […] of body weight of a 0.025% w/v solution of PBQ was injected intraperitoneally into each mouse. Ten mice which were given saline in place of a test compound of the invention were used as a control group. Five minutes later, each mouse was individually placed into a glass beaker for observation, and the number of writhes occurring during the following ten-minute period was counted. A test compound was considered to have produced analgesia in a mouse if, in accordance with the conditions set forth above, and under the test criteria employed for this assay, after the administration of 30 mg per kilogram of body weight of a compound of the present invention to the mouse, the number of writhes elicited by a mouse injected with PBQ was equal to, or less than, one-half the median number of writhes recorded for the saline-treated control group of mice that day, as described by Taber in "Predictive Value of Analgesic Assays in Mice and Rats," Advances in Biochemical Psychopharmacology, 8, 191 (1974). […] If this initial screening dose of the test compound produced analgesia in seven of nine or ten mice, then the effect of additional doses of the test compound on the writhing response was evaluated, and then the ED50 value (that dose of a compound which produced analgesia in 50% of the mice to which the compound was administered) was generally calculated. A maximum likelihood function was used to determine the ED50 value. (The slopes of the dose-response curves for all test compounds analyzed were compared as described by Tallarida and Murray, Manual of Pharmacologic Calculations, Page 11 (Springer Verlag, New York, 1981)). The results for the particular compounds of the present invention analyzed in this assay, and discussed in the examples identified below which correspond thereto, are presented in Table 1 hereinbelow. The compounds of the present invention which were tested in this assay, and for which results are presented in Table 1, correspond to the particular examples specified in Table 1. The fractions indicate the number of mice out of nine or ten in which a test compound produced analgesia, and the whole numbers are the calculated ED50 values.

[2] = system: prostaglandin E2 -induced contractions of segments of guinea pig ileum; test: Prostaglandin (PGE) Antagonism Assay; type: cell-based; conditions: dose ratio of prostaglandin E2 EC50 doses with/without test compound, initial concentration 3 micromolar
Protocol: In order to determine the effectiveness of several of the compounds of the present invention ("test compounds") as prostaglandin E2 antagonists,a prostaglandin antagonism assay was conducted, as described below, to determine the ability of these compounds to inhibit prostaglandin E2 -induced contractions of segments of guinea pig ileum. […] Male albino guinea pigs weighing 200 to 500 grams were sacrificed by cervical dislocation. The ilea were then quickly removed from the guinea pigs and placed in a modified Tyrode solution, a solution which is known to those skilled in the art, containing one-half of the usual amount of magnesium ions. Segments of ileum about 2 cm long were then cut and mounted in a 10-mL tissue bath containing the modified Tyrode solution. The solution was maintained at 37° C. and aerated with a gaseous mixture of 95% oxygen and 5% carbon dioxide. Data for a control prostaglandin E2 dose response curve plotting concentration of prostaglandin E2 versus the intensity of contractions, detected isotonically, was then obtained by experimentally adjusting the dose of the prostaglandin E2 being injected into the tissue bath, in a manner known by those of skill in the art. Solutions or suspensions containing an initial concentration (3 micromolar) of a test compound in modified Tyrode solution ("test solutions/suspensions") were then separately substituted for the control bath solution. Each test solution/suspension was then kept in constant contact with the ileum tissue, except for brief periods to drain the bath in preparation for rinsing with fresh test solution/suspension. A second prostaglandin E2 dose response curve was then generated for prostaglandin E2 in the presence of a test compound. A dose ratio (DR) of EC50 doses was then calculated from the results of each test in a manner known by those of skill in the art. A control dose response curve (DRC) is produced in isolated segments of guinea pig ileum mounted in an automated apparatus with six concentrations of prostaglandin E2. A solution or suspension of test compound is substituted for the control bathing solution and is incubated for thirty minutes. An additional prostaglandin E2 dose response curve is produced in the presence of the test compound. A dose ratio is calculated from the EC50 values obtained from duplicate replications on each concentration of the test compound. […] The results of this prostaglandin antagonism assay are presented in Table 2 below in terms of their dose ratio. The compounds of the present invention which were tested in this assay, and for which results are presented in Table 2, correspond to the particular examples specified in Table 2.

Row | Compound | responders at 30 mg/kg [1] | Dose Ratio [2] | number of mice out of nine or ten in which a test compound produced analgesia [1]
1 | O=C(CCc1cccnc1)N1CCN(C(=O)N2Cc3ccccc3Oc3ccc(Cl)cc32)CC1 [Example 33, 1-[(8-chlorodibenz[b,f][1,4]oxazepin-10(11H)-yl)carbonyl]-4-[(1-oxo-3-(3-pyridinyl)propyl]piperazine, monohydrochloride] | 80% | 6.7 | 
2 | Cl.O=C(N1CCN(CCc2ccccc2)CC1)N1Cc2ccccc2Oc2ccc(Cl)cc21 [Example 40, 8-Chloro-10,11-dihydro-10-[[4-(2-phenylethyl)-1-piperazinyl]carbonyl]dibenz[b,f][1,4]oxazepine, monohydrochloride] | 20% | 4.1 | 
3 | O=C(N1CCN(CCc2ccccc2)CC1)N1Cc2ccccc2Oc2ccccc21 [Example 41, 10,11-dihydro-10-[[4-(2-phenylethyl)-1-piperazinyl]carbonyl]dibenz[b,f][1,4]oxazepine, monohydrochloride] | 100% | 2.6 | 
4 | Cl.O=C(N1CCN(c2ccccc2)CC1)N1Cc2ccccc2Oc2ccc(Cl)cc21 [Example 43, 8-chloro-10,11-dihydro-10-[(4-phenyl-1-piperazinyl)carbonyl]dibenz[b,f][1,4]oxazepine, hydrochloride] | 10% | 0.8 | 
5 | Cl.O=C(N1CCN(Cc2ccsc2)CC1)N1Cc2ccccc2Oc2ccc(Cl)cc21 [Example 47, 8-chloro-10,11-dihydro-10-[[4-(3-thienylmethyl)-1-piperazinyl]carbonyl]dibenz[b,f][1,4]oxazepine, monohydrochloride] | 70% | 2.9 | 
6 | Cl.O=C(N1CCN(Cc2cccs2)CC1)N1Cc2ccccc2Oc2ccc(Cl)cc21 [Example 54, 8-chloro-10,11-dihydro-10-[[4-(2-thienylmethyl)-1-piperazinyl]carbonyl]dibenz[b,f][1,4]oxazepine, monohydrochloride] | 60% | 2.4 | 
7 | Cl.O=C(Cc1cccnc1)N1CCN(C(=O)N2Cc3ccccc3Oc3ccc(Cl)cc32)CC1 [Example 56, 1-[(8-chlorodibenz[b,f][1,4]oxazepin-10(11H)-yl)carbonyl]-4-(3-pyridinylacetyl)piperazine, monohydrochloride] | 50% | 3.3 | 
8 | Cl.O=C(c1cccnc1)N1CCN(C(=O)N2Cc3ccccc3Oc3ccc(Cl)cc32)CC1 [Example 58, 1-[(8-chlorodibenz[b,f][1,4]oxazepin-10(11H)-yl)carbonyl]-4-(3-pyridinylcarbonyl)piperazine, hydrochloride] | 70% | 6.6 | 
9 | Cl.O=C(N1CCCNCC1)N1Cc2ccccc2Oc2ccc(Cl)cc21 [Example 61, 8-chloro-10-[(hexahydro-1H-1,4-diazepin-1-yl)carbonyl]-10,11-dihydrodibenz[b,f][1,4]oxazepine, hydrochloride] | 60% | 4.8 | 
10 | Cl.O=C(N1CCN(Cc2ccco2)CC1)N1Cc2ccccc2Oc2ccc(Cl)cc21 [Example 65, 8-chloro-10-[[4-(2-furanylmethyl)-1-piperazinyl]carbonyl]-10,11-dihydrodibenz[b,f][1,4]oxazepine, monohydrochloride] | 40% | 8.4 | 
11 | CCN(CC)CCC1=CCN(C(=O)N2Cc3ccccc3Oc3ccc(Cl)cc32)CC1.Cl [Example 67, 8-chloro-10-[[4-[2-(diethylamino)ethyl]-3,6-dihydro-1(2H)-pyridinyl]carbonyl]-10,11-dihydrobenz[b,f][1,4]oxazepine, hydrochloride] |  | 10.2 | 6/10
